# Measured values: the supplement of paper PMC11451515
# Test system: SEM cells
# Assay: cell viability relative to DMSO control; higher = less cytotoxic
# Details: 48 h
# Outline: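 Three leukemia lines were tested: NOMO1 and SEM at 500 cells/well and P12-Ichikawa at 1000 cells/well. Each was adapted for at least four passages in each medium and seeded in 5 μl in 1536-well plates, and library compounds in DMSO were pin-dosed from 47 μM to 0.79 nM in 11 threefold steps. After 48 h at 37°C, CellTiter-Glo One luminescence was read. Viability is a percentage relative to DMSO wells on each plate, with cell-free wells as background.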
# [1] = HPLM + 10% dialyzed FBS, 0.000781 µM
# [2] = HPLM + 10% dialyzed FBS, 0.00234 µM
# [3] = HPLM + 10% dialyzed FBS, 0.00702 µM
# [4] = HPLM + 10% dialyzed FBS, 0.0211 µM
# [5] = HPLM + 10% dialyzed FBS, 0.0632 µM
# [6] = HPLM + 10% dialyzed FBS, 0.19 µM
# [7] = HPLM + 10% dialyzed FBS, 0.569 µM
# [8] = HPLM + 10% dialyzed FBS, 1.71 µM
# [9] = HPLM + 10% dialyzed FBS, 5.12 µM
# [10] = HPLM + 10% dialyzed FBS, 15.4 µM
# [11] = HPLM + 10% dialyzed FBS, 46.1 µM
# [12] = RPMI 5 mM glucose + 10% FBS, 0.000781 µM
# [13] = RPMI 5 mM glucose + 10% FBS, 0.00234 µM
# [14] = RPMI 5 mM glucose + 10% FBS, 0.00702 µM
# [15] = RPMI 5 mM glucose + 10% FBS, 0.0211 µM
# [16] = RPMI 5 mM glucose + 10% FBS, 0.0632 µM
# [17] = RPMI 5 mM glucose + 10% FBS, 0.19 µM
# [18] = RPMI 5 mM glucose + 10% FBS, 0.569 µM
# [19] = RPMI 5 mM glucose + 10% FBS, 1.71 µM
# [20] = RPMI 5 mM glucose + 10% FBS, 5.12 µM
# [21] = RPMI 5 mM glucose + 10% FBS, 15.4 µM
# [22] = RPMI 5 mM glucose + 10% FBS, 46.1 µM
# [23] = RPMI 5 mM glucose + 10% dialyzed FBS, 0.000781 µM
# [24] = RPMI 5 mM glucose + 10% dialyzed FBS, 0.00234 µM
# [25] = RPMI 5 mM glucose + 10% dialyzed FBS, 0.00702 µM
# [26] = RPMI 5 mM glucose + 10% dialyzed FBS, 0.0211 µM
# [27] = RPMI 5 mM glucose + 10% dialyzed FBS, 0.0632 µM
# [28] = RPMI 5 mM glucose + 10% dialyzed FBS, 0.19 µM
# [29] = RPMI 5 mM glucose + 10% dialyzed FBS, 0.569 µM
# [30] = RPMI 5 mM glucose + 10% dialyzed FBS, 1.71 µM
# [31] = RPMI 5 mM glucose + 10% dialyzed FBS, 5.12 µM
# [32] = RPMI 5 mM glucose + 10% dialyzed FBS, 15.4 µM
# [33] = RPMI 5 mM glucose + 10% dialyzed FBS, 46.1 µM
Structure (SMILES),cell viability [1] [%],cell viability [2] [%],cell viability [3] [%],cell viability [4] [%],cell viability [5] [%],cell viability [6] [%],cell viability [7] [%],cell viability [8] [%],cell viability [9] [%],cell viability [10] [%],cell viability [11] [%],cell viability [12] [%],cell viability [13] [%],cell viability [14] [%],cell viability [15] [%],cell viability [16] [%],cell viability [17] [%],cell viability [18] [%],cell viability [19] [%],cell viability [20] [%],cell viability [21] [%],cell viability [22] [%],cell viability [23] [%],cell viability [24] [%],cell viability [25] [%],cell viability [26] [%],cell viability [27] [%],cell viability [28] [%],cell viability [29] [%],cell viability [30] [%],cell viability [31] [%],cell viability [32] [%],cell viability [33] [%]
CCCCn1c(=O)n(Cc2ccccc2F)c(=O)c2nc(Cc3ccc(NC(C)=O)cc3)[nH]c21,101,98.7,87.6,109,104,84.9,89.8,97,98.2,81.1,93.7,101,102,105,89.5,90.3,86.9,88.1,97.6,92.1,96.1,99.5,92.9,91.3,98.7,81.5,110,85.5,85,99,97.3,90.9,91.8
CCC[C@H](NC(=O)/C(C#N)=C/c1cccc(Br)n1)c1ccccc1,121,125,119,26.5,124,117,111,124,120,98.6,6.55,94.4,110,104,17.6,112,111,102,113,111,57.1,7.49,–,–,–,–,–,–,–,–,–,–,–
CC1=CC=CC=C1N2\C(=N/C3=C(C(=CC=C3)C)C2=O)C[N]4C=NC5=C4N=CN=C5N,97.1,110,115,92.6,83.8,77.7,67.3,72.1,49.6,46.6,37.2,90.8,93,94.3,65.9,83.4,62.1,59.4,54.8,45,34.4,20.8,93.2,112,120,84.3,90,77.5,68.1,64.8,53.5,46.2,33.8
Cn1c(=O)c2c(ncn2C)n(C)c1=O.O=C(O)CC(O)(CC(=O)O)C(=O)O,124,117,110,111,112,128,118,114,122,121,106,117,107,112,107,117,106,115,96.1,103,110,89.7,113,114,120,123,112,124,115,114,117,124,112
Cc1ccc(NC(=O)c2ccc(CN3CCN(C)CC3)cc2)cc1Nc1nc(-c2cccnc2)cs1,56.2,90.4,87.9,65.4,53.1,47.6,42.4,32.7,28.2,20.2,24.6,64.8,99,93.2,71.2,70.9,51.7,43.7,34.8,23.6,15.7,17.1,54.5,88.4,74.7,65.1,63.6,46.7,37.5,29.7,22.1,10.9,18
COc1cc2c(cc1-c1c(C)noc1C)ncc1[nH]c(=O)n([C@H](C)c3ccccn3)c12,–,–,–,–,–,–,–,–,–,–,–,117,106,140,120,119,114,102,65.4,8.34,6.3,3.15,101,94.8,110,119,101,96.1,76.5,49.7,6.42,6.4,3.1
C/C=C(/C)C(=O)O[C@H]1C(C)=C2[C@H]([C@@H]1OC(=O)CCCCCCC)[C@@](C)(OC(C)=O)C[C@H](OC(=O)CCC)[C@@]1(O)[C@H]2OC(=O)[C@@]1(C)O,95,112,111,101,57,13.1,8.77,7.59,7.07,6.17,6.69,105,112,113,85.7,23.8,10.4,6.8,6.65,7.69,5.62,6.01,107,138,114,82.7,33.8,9.51,7.63,5.08,4.94,3.37,3.69
Nc1ccccc1NC(=O)c1ccc(CNC(=O)OCc2cccnc2)cc1,109,120,120,111,118,119,87.2,21.2,8.14,7.22,5.16,109,117,136,125,132,120,89.3,12.2,7.97,6.97,4.6,94.3,105,99.8,114,124,104,76.3,13,8.44,7.8,5.76
CC(C)[C@@H](N(CCCN)C(=O)C1=CC=C(C)C=C1)C/2=N/C3=CC(=CC=C3C(=O)N2CC4=CC=CC=C4)Cl,84.5,21,20.5,19.5,16,20.4,19.5,20.2,21.9,21.2,21.9,103,16.5,14.8,14,15.9,15,12.3,13.7,16.8,16.2,11.6,80,19.8,16.2,15.7,16.4,14.4,17.5,14.8,16.4,17.2,13.2
CO[C@H]1/C=C/O[C@@]2(C)Oc3c(C)c(O)c4c(O)c(c5c(nc6cc(C)ccn65)c4c3C2=O)NC(=O)/C(C)=C\C=C\[C@H](C)[C@H](O)[C@@H](C)[C@@H](O)[C@@H](C)[C@H](OC(C)=O)[C@@H]1C,100,97.7,100,107,92.5,112,113,104,47.2,70,1.92,106,120,109,125,94.9,102,115,111,40.5,63.1,4.47,104,109,98.6,109,90.2,96.8,97.1,82.1,32,50.8,1.61
COc1c(C)cnc(Cn2cnc3c(Cl)nc(N)nc32)c1C,94.1,106,103,112,102,76.9,52.8,28.3,15.9,22.3,17.6,108,125,99.6,115,100,77.3,50,25.5,16.1,22.9,17.3,115,104,106,116,124,78.6,52.9,33.1,15.8,25,22.1
CC/1=C/C(=O)N(O)/C(=C1)C2CCCCC2,82.9,89.7,119,111,116,106,126,126,117,50.8,12.6,113,111,135,124,129,143,140,147,101,55.3,14.2,92.9,94.4,126,117,122,147,140,144,113,56.4,14.4
[NH2][Pt]1([NH2])[O]CC(=O)[O]1,78.3,95.6,96.2,92.2,91.2,102,94.4,97,108,96.7,89.7,104,100,110,96.4,108,109,95.5,101,103,88.3,96.3,75.6,84.2,85.7,83.6,88.1,87.7,76.9,94.9,79,91.5,92.3
Cc1cn2c(-c3cn[nH]c3)cnc2c(Nc2ccc(C(=O)N3CCNCC3)cc2F)n1,105,106,119,103,109,105,107,108,87.8,45.9,17,98.7,99.8,107,98.5,112,114,96.7,109,90.6,48.3,11.8,107,104,105,99.5,122,102,114,98.2,91.7,49.9,9.99
Cc1c(CN2CCN(C(=O)[C@H](C)O)CC2)sc2c(N3CCOCC3)nc(-c3cnc(N)nc3)nc12,98,63.4,78.2,79,70.5,67.7,55.4,38.5,35.8,36.1,31.3,96.8,70,95.4,80.9,84.6,80.1,56.3,34.3,34.3,36.8,27.3,90.4,54.8,87.4,82.4,67,78.6,48.2,41.3,36.6,34.6,30.5
COc1cccc2cc(-c3nc(C4CCC(C(=O)O)CC4)n4ncnc(N)c34)[nH]c12 (stereo not given),118,132,124,107,107,101,74.7,36.2,28.2,22.6,16.4,–,–,–,–,–,–,–,–,–,–,–,111,133,118,114,96,99.7,89.3,52.6,31.5,22.2,15.8
